Some test systems named below: SNB-75 CNS; SK-MEL-28 melanoma; DU-145 prostate; NCI/ADR-RES ovarian; IGROV1 ovarian; COLO 205 colon; CAKI-1 renal; SR leukemia; MOLT-4 leukemia; MDA-MB-435.
What all share (experiment): growth of human tumour cells (NCI), 48 h

Molecules are shown by their SMILES.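 Exposure lasted 48 hours, with cells grown in 96-well plates and compounds tested at five concentrations. The concentration for 50% growth inhibition is given as GI50. At the TGI there is no net growth.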

For `O=C(Nc1cccc2ccccc12)c1cc2ccccc2cc1O`, the GI50 with SNB-75 CNS was 1.6 µM; with SK-MEL-28 melanoma, 3.58 µM; with DU-145 prostate, 3.84 µM; in the test on NCI/ADR-RES ovarian it was 2.17 µM; in the test on IGROV1 ovarian, 1.46 µM; in the test with COLO 205 colon, 9.76 µM. The GI50 with CAKI-1 renal was 1.75 µM; in the test with SR leukemia, 2.57 µM; in the test with MOLT-4 leukemia it was 3.08 µM; with MDA-MB-435 it was 1.87 µM. The TGI in the test with SNB-75 CNS was 6.11 µM; in the test with SK-MEL-28 melanoma, 22.4 µM; in the test with DU-145 prostate, above 100 µM; in the test on NCI/ADR-RES ovarian it was 8.07 µM; in the test on IGROV1 ovarian it was 7.27 µM; in the test on COLO 205 colon, 23.7 µM. Besides, the TGI with CAKI-1 renal came out at 4.52 µM; in the test on SR leukemia, 9.73 µM; in the test on MOLT-4 leukemia, 21.5 µM; with MDA-MB-435, 5.05 µM.
Consider `Cc1ccc(C2CC(c3cccc(Nc4ccncc4)c3)=NN2c2ccc(Cl)cc2)cc1` (stereo not given), for which the GI50 with SNB-75 CNS is 1.36 µM; with SK-MEL-28 melanoma, 1.83 µM; with DU-145 prostate it was 1.8 µM; in the test with NCI/ADR-RES ovarian, 1.87 µM; in the test on IGROV1 ovarian, 1.72 µM; with COLO 205 colon, 1.73 µM. Also, the GI50 in the test with CAKI-1 renal is 1.51 µM; in the test with SR leukemia it was 1.52 µM; in the test with MOLT-4 leukemia, 1.85 µM; in the test with MDA-MB-435, 1.6 µM. Moreover, the TGI in the test with SNB-75 CNS stood at 2.87 µM; in the test on SK-MEL-28 melanoma, 3.32 µM; with DU-145 prostate it was 3.21 µM; with NCI/ADR-RES ovarian, 3.88 µM; with IGROV1 ovarian it was 3.24 µM; in the test on COLO 205 colon, 3.6 µM. The TGI in the test on CAKI-1 renal is 2.97 µM; in the test on SR leukemia, 3.52 µM; in the test on MOLT-4 leukemia it was 4.12 µM; with MDA-MB-435, 2.97 µM.
Regarding `O=C(Nc1ncc(Cc2ccc(Cl)cc2)s1)c1ccc2c(c1)OCCO2`, the GI50 is 0.0266 µM in the test with SNB-75 CNS; 1.02 µM in the test on SK-MEL-28 melanoma; 0.05 µM with DU-145 prostate; 0.0393 µM in the test with NCI/ADR-RES ovarian; 0.126 µM with IGROV1 ovarian; 0.0492 µM with COLO 205 colon. The GI50 was 0.0547 µM in the test on CAKI-1 renal, 0.0528 µM in the test with SR leukemia, 0.0877 µM in the test with MOLT-4 leukemia and 0.0197 µM in the test on MDA-MB-435. In addition, the TGI was 3.4 µM in the test with SNB-75 CNS; above 100 µM in the test with SK-MEL-28 melanoma; 9.38 µM in the test with DU-145 prostate; 5.58 µM with NCI/ADR-RES ovarian; above 100 µM in the test on IGROV1 ovarian; 1.19 µM with COLO 205 colon. Also, the TGI with CAKI-1 renal is 39 µM; in the test with SR leukemia, above 100 µM; in the test with MOLT-4 leukemia, above 100 µM; in the test with MDA-MB-435 it was 0.0459 µM.
Turning to `Cc1cc(NC(=O)C(=O)Cc2nc3ccccc3s2)ccc1Cl`, the TGI in the test on SNB-75 CNS, with SK-MEL-28 melanoma, in the test with DU-145 prostate, in the test on NCI/ADR-RES ovarian, in the test with IGROV1 ovarian and in the test on COLO 205 colon was above 100 µM each time. Also, the TGI with CAKI-1 renal, in the test with SR leukemia, with MOLT-4 leukemia and in the test with MDA-MB-435 was above 100 µM throughout.
As for `Cc1cc(Cl)ccc1Nc1nc(C(F)(F)F)ccc1C(=O)N/N=C/c1c(Cl)cccc1Cl`, the GI50 with SNB-75 CNS is 1.34 µM; with SK-MEL-28 melanoma, 0.806 µM; in the test on DU-145 prostate it was 0.548 µM; in the test on NCI/ADR-RES ovarian it was 0.445 µM; in the test with IGROV1 ovarian, 0.357 µM; in the test with COLO 205 colon it was 0.358 µM. The GI50 was 0.0557 µM in the test with CAKI-1 renal, 0.263 µM with SR leukemia, 0.157 µM in the test on MOLT-4 leukemia and 0.357 µM in the test with MDA-MB-435. The TGI with SNB-75 CNS is above 100 µM; in the test with SK-MEL-28 melanoma, above 100 µM; in the test with DU-145 prostate it was above 100 µM; in the test on NCI/ADR-RES ovarian, above 100 µM; in the test on IGROV1 ovarian, 6.29 µM; in the test on COLO 205 colon, 1.24 µM. Also, the TGI in the test with CAKI-1 renal is 3.28 µM; in the test on SR leukemia, above 100 µM; in the test on MOLT-4 leukemia it was 0.597 µM; in the test with MDA-MB-435 it was above 100 µM.
For `OCCCNC(=S)Nc1ccc(-c2nc3ccccc3s2)cc1`, the GI50 was 18.8 µM in the test on SNB-75 CNS; 24.9 µM in the test on SK-MEL-28 melanoma; 40.9 µM in the test on DU-145 prostate; 25.2 µM with NCI/ADR-RES ovarian; 13.5 µM in the test on IGROV1 ovarian; 30 µM in the test with COLO 205 colon. Besides, the GI50 is 14.3 µM in the test with CAKI-1 renal, 14.6 µM with SR leukemia, 16.7 µM in the test on MOLT-4 leukemia and 17.9 µM in the test with MDA-MB-435. Further, the TGI in the test with SNB-75 CNS is 78.8 µM; in the test on SK-MEL-28 melanoma, 70.3 µM; in the test with DU-145 prostate, above 100 µM; with NCI/ADR-RES ovarian, 66.6 µM; in the test on IGROV1 ovarian it was 95.4 µM; in the test on COLO 205 colon it was above 100 µM. Further, the TGI with CAKI-1 renal was 40.6 µM; in the test on SR leukemia it was 50 µM; in the test on MOLT-4 leukemia, above 100 µM; in the test on MDA-MB-435, 50.8 µM.
As for `Cn1cc(C2=C(c3cccc(NCC(O)CO)c3)C(=O)NC2=O)c2cc(Cl)ccc21` (stereo not given), the GI50 in the test on SNB-75 CNS is 3.45 µM; with SK-MEL-28 melanoma it was 5.68 µM; in the test on DU-145 prostate, 5.58 µM; in the test with NCI/ADR-RES ovarian, 12.5 µM; with IGROV1 ovarian, 5.62 µM; with COLO 205 colon, 2.74 µM. For the same molecule, the GI50 in the test with CAKI-1 renal was 2.56 µM; in the test on SR leukemia it was 3.03 µM; in the test with MOLT-4 leukemia it was 4.2 µM; with MDA-MB-435, 5.9 µM. Further, the TGI in the test with SNB-75 CNS is 9.55 µM; in the test with SK-MEL-28 melanoma, 16.1 µM; in the test on DU-145 prostate it was above 19.3 µM; with NCI/ADR-RES ovarian, above 25 µM; in the test with IGROV1 ovarian it was 15.1 µM; in the test on COLO 205 colon, 6.17 µM. The TGI in the test with CAKI-1 renal was 13.2 µM; in the test with SR leukemia it was above 25 µM; with MOLT-4 leukemia, 18 µM; in the test with MDA-MB-435 it was above 20.6 µM.
As for `Cn1c2ccccc2c(=S)c2cc(NC(=O)CCCCC(=O)Nc3ccc4c(c3)c(=S)c3ccccc3n4C)ccc21`, the TGI in the test with SNB-75 CNS, with SK-MEL-28 melanoma, in the test on DU-145 prostate, in the test on NCI/ADR-RES ovarian, in the test on IGROV1 ovarian and in the test on COLO 205 colon was above 100 µM each time. Also, the TGI in the test with CAKI-1 renal, with SR leukemia, in the test on MOLT-4 leukemia and in the test with MDA-MB-435 was above 100 µM throughout.

The record behind these values is PubChem BioAssay (NCI).
